Measured values published in PMC10384408, “Anticancer Tungstenocenes with a Diverse Set of (O,O–), (O,S–) and (O,N–) Chelates—A Detailed Biological Study Using an Improved Evaluation via 3D Spheroid Models” (Pharmaceutics, 2023).

How the values were obtained:
[1] = test system: pUC19 plasmid; assay: Electrophoretic dsDNA plasmid assay; assay type: biochemical; settings: 50 µM, up to 6 h, 37 °C
Procedure: An amount of 400 ng of the pUC19 plasmid (2686 bp, New England Biolabs, Ipswich, MA, USA) was incubated with the test compounds (50 µM). Stock solutions of the test compounds were prepared in MilliQ water. The samples were incubated for different intervals (15 min to 6 h) with continuous shaking at 37 °C. Following the incubation time, 4 µL aliquots of 6 × DNA loading dye (Thermo Fisher, Kandel, Germany) were added to the 20 µL DNA samples. Electrophoresis was performed in a 1% agarose gel in 1 × TBE buffer, started at 60 V for 5 min and continued at 120 V for 90 min. Ethidium bromide (EtBr, Serva Electrophoresis GmbH, Heidelberg, Germany) staining was conducted in 1 × TBE (0.75 µg/mL) for 20 min. Images were taken by the GelDoc Imaging System Fusion F×7 (Vilber Lourmat, Eberhardzell, Germany). For quantification ImageJ/Fiji1.46 was used.

[2] = Cell-free DCF fluorescence quenching assay
Procedure: To verify interactions of complex 4 with the fluorescence of DCF (2′,7′-dichlorofluorescein, Sigma-Aldrich), a fluorescence quenching assay was performed. For this purpose, DCF was dissolved in abs. ethanol (Sigma-Aldrich), diluted in phenol-red-free MEM (1% FBS) to 5 µM and complex 4 dissolved in DMF, diluted to 20 and 200 µM in the same medium. Furthermore, two combinations of 5 µM DCF with 20 and 200 µM of complex 4 were prepared. The fluorescence intensity of the substances alone and their combinations were measured (excitation: 485/20 nm, emission: 516/20 nm) in 10 min intervals with the Synergy HT reader (BioTek) over 2 h.

[3] = test system: HT29 cells; settings: 200 µM
[4] = test system: MCF-7 cells; settings: 200 µM

Q: Which “interaction with plasmid dsDNA” value [1] does the source give for `F[P-](F)(F)(F)(F)F.O=c1c([O-])c(-c2ccc(Cl)cc2)oc2ccccc12.[W+4].c1cc[cH-]c1.c1cc[cH-]c1` [Compound 3, Bis(η^5-cyclopentadienyl)[2-(4-chlorophenyl)-3-(oxo-κO)-4(H)-chromen-4-oato-κO]tungsten(IV) hexafluorophosphate] here?
A: showing the ability to induce DNA nicks

Q: For `F[P-](F)(F)(F)(F)F.[O-]c1c(-c2ccc(Cl)cc2)oc2ccccc2c1=S.[W+4].c1cc[cH-]c1.c1cc[cH-]c1` [Compound 4, Bis(η^5-cyclopentadienyl)[2-(4-chlorophenyl)-3-(oxo-κO)-4(H)-chromen-4-thionato-κS]tungsten(IV) hexafluorophosphate], which “lower fluorescence intensity relative to DCF (5 µM) alone” value ([2]; DCF 5 µM + complex 20 µM) is on record?
A: 36.8%

Q: And the “lower fluorescence intensity relative to DCF (5 µM) alone” value ([2]; DCF 5 µM + complex 200 µM)?
A: 77.2%

Q: For `Cc1cc(=S)c([O-])co1.F[P-](F)(F)(F)(F)F.[W+4].c1cc[cH-]c1.c1cc[cH-]c1` [Compound 8, Bis(η^5-cyclopentadienyl)[2-methyl-5-(oxo-κO)-pyran-4-(1H)-thionato-κS] tungsten(IV) hexafluorophosphate], which “single-strand breaks (sc form to oc form)” value [1] is on record?
A: 15 ± 2%

Q: Which results are given for `F[P-](F)(F)(F)(F)F.O=C([O-])c1ccccn1.[W+4].c1cc[cH-]c1.c1cc[cH-]c1` [Compound 5, Bis(η^5-cyclopentadienyl)[2-(carboxylato-κO)-pyridine-κN]tungsten(IV) hexafluorophosphate]?
A: viable cells [%] AV- / PI- [3]: 91.5 ± 8.9%; viable cells [%] AV- / PI- [4]: 86.6 ± 7.6%
